Assay [1] in a line: Inhibition of human serum classical complement system assessed as modulation of complement pathway by classical hemolytic complement assay.
The nature of assay [2]: Inhibition of human serum alternative complement system assessed as modulation of complement pathway by alternative hemolytic complement assay.
The test system of assay [3] is Aspergillus niger. The assay is described as follows: Antifungal activity against Aspergillus niger. The class given is functional.
For assay [4], the system named is Trichophyton rubrum. The assay is described as follows: Antifungal activity against Trichophyton rubrum. The class given is functional.
The test system of assay [5] is Candida albicans. The experiment in a line: Antifungal activity against Candida albicans. The class given is functional.
The subject of assay [6] is Bacillus cereus. The assay is described as follows: Antibacterial activity against Bacillus cereus. The class given is functional.
Assay [7] has as its system Escherichia coli. The experiment in a line: Antibacterial activity against Escherichia coli. The format is functional.
Assay [8] relates to Pseudomonas aeruginosa. The assay is described as follows: Antibacterial activity against Pseudomonas aeruginosa. The class given is functional.
Assay [9] concerns Staphylococcus aureus. The experiment in a line: Antibacterial activity against Staphylococcus aureus. The format is functional.
Assay [10] concerns Human alphaherpesvirus 1. The experiment in a line: Antiviral activity against HSV1 assessed as reduction factor of viral titer at 100 ug/ml. The class given is functional, organism-based.
Assay [11] can be described thus: Inhibition of human serum classical complement system assessed as modulation of complement pathway at 420 uM by classical hemolytic complement assay.
The nature of assay [12]: Growth inhibition of human NCI60 cells. The class given is functional.
In assay [13] the test system is SF-295. The assay is described as follows: Growth inhibition of human SF295 cells. The format is functional.

Activity calls are given as the source filed them.

Usually IC50 stands for the point on the concentration scale where inhibition reaches its midpoint. By MIC is commonly meant the smallest concentration in the dilution series that meets the test's criterion for growth inhibition. In general, inhibition refers to the change of the read-out against control, counted positive when it falls. The GI50 is the concentration giving 50% growth inhibition. Low values mean more potent growth inhibition, high ones less potent growth inhibition. For orientation: TGI means the concentration giving total growth inhibition. Lower therefore signals greater sensitivity of the cells.

`CC(C)C1=CC(=O)[C@](C)([C@H]2[C@H](O)C[C@@]3(C)[C@@H]4CC=C5[C@@H](CC[C@@H](O[C@@H]6O[C@H](CO)[C@@H](O)[C@H](O)[C@H]6O[C@@H]6O[C@@H](C)[C@H](O)[C@@H](O)[C@H]6O)C5(C)C)[C@]4(C)C(=O)C[C@]23C)O1` [PICFELTARRACEMIN IB]: the Activity entry in [1] and in [2] was “Dose-dependent effect” each time. For the same compound, the IC50 in assay [1] is above 420 µM; in assay [2] it was 68 µM. The MIC in assay [3], in assay [4], in assay [5], in assay [6], in [7] and in [8] was above 100 µg/mL throughout. The compound also displayed an MIC in assay [9] above 100 µg/mL. Besides, the outcome in assay [10] was Active. Besides, the inhibition in assay [11] is 48%. This compound also gave a GI50 in assay [12] above 100 µM. Further, the TGI in assay [12] was above 100 µM.
As to `CC(C)C1=CC(=O)[C@](C)([C@H]2[C@H](O)C[C@@]3(C)[C@@H]4CC=C5[C@@H](CC[C@@H](O[C@@H]6OC[C@@H](O)[C@H](O[C@@H]7O[C@H](CO)[C@@H](O)[C@H](O)[C@H]7O[C@@H]7O[C@@H](C)[C@H](O)[C@@H](O)[C@H]7O)[C@H]6O)C5(C)C)[C@]4(C)C(=O)C[C@]23C)O1` [PICFELTARRACEMIN IV], the Activity entry in [1] and in assay [2] was “Dose-dependent effect” in each case. Further, the figures for the IC50 in assay [1] and in [2] were 131 µM and 313 µM, respectively. In addition, the MIC in assay [3], in assay [4], in [5], in assay [6], in assay [7] and in assay [8] was above 100 µg/mL throughout. Moreover, the MIC in assay [9] was above 100 µg/mL. Further, in assay [10], the outcome was Active.
As for `CC(C)C1=CC(=O)[C@](C)([C@H]2[C@H](O)C[C@@]3(C)[C@@H]4CC=C5[C@@H](CC[C@@H](O[C@@H]6OC[C@@H](O)[C@H](O)[C@H]6O)C5(C)C)[C@]4(C)C(=O)C[C@]23C)O1` [PICFELTARRACEMIN VI], the Activity entry in assay [1] and in assay [2] was “Dose-dependent effect” in each case. For the same compound, the IC50 in assay [1] was determined as 29 µM; in assay [2] it was 21 µM. In addition, the MIC in assay [3], in assay [4], in assay [5], in assay [6], in [7] and in assay [8] was above 100 µg/mL in each case. This compound came in with a minimal inhibitory concentration (MIC) in [9] above 100 µg/mL. In addition, the outcome in assay [10] was Active.
As for `O=C(/C=C/c1ccc(O)c(O)c1)O[C@H](Cc1ccc(O)c(O)c1)C(=O)O` [ROSMARINIC ACID], the concentration for half-maximal inhibition (IC50) in assay [1] amounted to 81 µM; in assay [2], 408 µM.
As for `CC(C)C1=CC(=O)[C@](C)([C@H]2[C@H](O)C[C@@]3(C)[C@@H]4CC=C5[C@@H](CC[C@@H](O[C@@H]6OC[C@@H](O)[C@H](O)[C@H]6O[C@@H]6O[C@@H](C)[C@H](O)[C@@H](O)[C@H]6O)C5(C)C)[C@]4(C)C(=O)C[C@]23C)O1` [PICFELTARRACEMIN IA], the Activity entry in assay [1] and in assay [2] was “Dose-dependent effect” in each case. Further, the values for the IC50 in assay [1] and in assay [2] were 95 µM and 336 µM, respectively. For the same compound, the MIC in assay [3], in [4], in assay [5], in assay [6], in assay [7] and in [8] was above 100 µg/mL in each case. Moreover, in assay [9], the MIC is above 100 µg/mL. The GI50 in assay [13] is 59 µM; in assay [12] it was above 100 µM. Moreover, the outcome in assay [10] was Active. In assay [12], the TGI is above 100 µM.

Source of the values: ChEMBL document CHEMBL1150903, “Complement-inhibiting cucurbitacin glycosides from Picria fel-terrae” (J Nat Prod, 1998).
